PubChem BioAssay AID2467 (Broad Institute, 2010)
Several values for one entry are separate records, joined by “and”; a condition that tells them apart may be missing. Equal entries are not always repeated. Results filed as inconclusive are left out. Activity calls are given as the source filed them. No rule for the calls is given here.

Tested on: C. albicans growth with fluconazole, fluorescence
Assay: fluconazole-exposed Candida albicans growth modulators – fluorescence, retest, confirmation (AID 2467)

Row | SMILES | EC50
1 | c1cnc2c(c1)ccc1cccnc12 | > 3800 nM (inactive)
2 | NC(=NCCCCCCN=C(N)/N=C(\N)Nc1ccc(Cl)cc1)/N=C(\N)Nc1ccc(Cl)cc1 | 635 nM and 308 nM and 649 nM
